Results: paper PMC10298982, “Stability Characterization of the Novel Anti-Cancer HM-10/10 HDL-Mimetic Peptide” (International Journal of Molecular Sciences, 2023)
Ends that are not written are not given here.

Tests used:
[1] = Metabolic stability in cynomolgus monkey liver microsomes; type: in vitro ADME; details: for CLint scaled: cynomolgus monkey, microsomes, Cynomolgus monkey liver microsomes 0.5 mg protein/mL, 2 μM
[2] = Metabolic stability in cryopreserved human hepatocytes; type: in vitro ADME; details: Human hepatocytes 0.5 million cells/mL; for CLint scaled: hepatocytes
CYP1A2 = CYP1A2 induction (mRNA expression) in single-donor human hepatocytes; type: in vitro ADME
Method: (§1) RNA isolation and quantification: E-Z 96 Total RNA Kit (Omega Bio-tek, Catalog No. R1034-02) was used for RNA isolation and Quant-iT RNA assay kit (ThermoFisher, Catalog No. Q33140) was used for RNA quantification. The plates were removed from a −80 °C freezer and equilibrated to room temperature. RNA was extracted using the manufacturer’s recommended protocol. Eighty-one microliters of 100% ethanol were added into each well containing 150 µL of lysed sample to make a final ethanol concentration at 35%.
(§2) cDNA generation: For cDNA generation, a High-Capacity cDNA Reverse Transcription Kit (Applied Biosystems, Catalog No. 4319983) and QuantStudio 3 PCR system (Applied Biosystems) were used. In this step, 2X Reverse Transcription Master Mix was prepared using the contents of the kit. Then, 10 µL of total RNA was added to 10 µL of 2X Reverse Transcription Master Mix in a microplate and the plate was sealed. This plate was then run in a thermocycler to generate cDNA.
(§3) Real time PCR: SsoAdvanced Universal SYBR® Green Supermix (BIO-RAD, Catalog No. 172-5270) and the QuantStudio 3 Real-Time PCR system (Applied Biosystems) were used to perform real-time PCR on the generated cDNA. In this step, a PCR mix was prepared using PCR Supermix, SYBR® primers for the targeted genes, and nuclease-free water. Two microliters of ten-fold diluted cDNA samples (5 µL of cDNA into 45 μL of nuclease-free water) were added to 8 µL of PCR Mix in a microplate and sealed. This plate was then run through the Real-Time PCR system to generate the mRNA expression data.
(§4) • Human GAPDH • F: […] • R: […] • Human CYP1A2 • Unique Assay ID: qHsaCID0015160 • Chromosome Location: 15:75045562-75047256 • Human CYP2B6 • F: […] • R: […] • Human CYP3A4 • F: […] • R: […]

CYP2B6 [3] = assay: CYP2B6 induction (mRNA expression) in single-donor human hepatocytes; type: in vitro ADME
Method: as §1, §2, §3, §4

[4] = CYP450 time-dependent inhibition, all isoenzymes together; type: in vitro ADME, human; details: all isoenzymes; +/− NADPH, with and without 30-min preincubation; read-out: Inhibition of CYP450 isoenzymes at 50 µM (maximum test concentration)
[5] = system: CYP450 isoenzymes (1A2, 2B6, 2C8, 2C9, 2C19, 2D6 and 3A4); assay: as above; type: in vitro ADME, human
CYP2B6 [6] = biological target: T1, CYP2B6 (Homo sapiens, UniProt P20813); details: microsomes
T1 sequence (P20813 1-491): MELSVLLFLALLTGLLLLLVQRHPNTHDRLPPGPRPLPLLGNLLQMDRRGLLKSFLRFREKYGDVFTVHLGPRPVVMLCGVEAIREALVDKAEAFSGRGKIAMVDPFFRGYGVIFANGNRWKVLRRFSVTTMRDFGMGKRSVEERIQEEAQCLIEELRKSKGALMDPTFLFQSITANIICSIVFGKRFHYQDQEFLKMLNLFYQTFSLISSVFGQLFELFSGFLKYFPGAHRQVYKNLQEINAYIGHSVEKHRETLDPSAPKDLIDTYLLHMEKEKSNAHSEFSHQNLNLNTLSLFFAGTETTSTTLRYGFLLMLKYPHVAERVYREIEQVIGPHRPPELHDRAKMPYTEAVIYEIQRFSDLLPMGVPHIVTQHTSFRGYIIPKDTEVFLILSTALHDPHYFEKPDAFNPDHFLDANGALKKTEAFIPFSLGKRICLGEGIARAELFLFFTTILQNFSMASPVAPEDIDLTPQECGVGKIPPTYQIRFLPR

CYP2C19 = CYP2C19 (Homo sapiens, UniProt P33261); details: microsomes
Chain of CYP2C19 (P33261 whole entry): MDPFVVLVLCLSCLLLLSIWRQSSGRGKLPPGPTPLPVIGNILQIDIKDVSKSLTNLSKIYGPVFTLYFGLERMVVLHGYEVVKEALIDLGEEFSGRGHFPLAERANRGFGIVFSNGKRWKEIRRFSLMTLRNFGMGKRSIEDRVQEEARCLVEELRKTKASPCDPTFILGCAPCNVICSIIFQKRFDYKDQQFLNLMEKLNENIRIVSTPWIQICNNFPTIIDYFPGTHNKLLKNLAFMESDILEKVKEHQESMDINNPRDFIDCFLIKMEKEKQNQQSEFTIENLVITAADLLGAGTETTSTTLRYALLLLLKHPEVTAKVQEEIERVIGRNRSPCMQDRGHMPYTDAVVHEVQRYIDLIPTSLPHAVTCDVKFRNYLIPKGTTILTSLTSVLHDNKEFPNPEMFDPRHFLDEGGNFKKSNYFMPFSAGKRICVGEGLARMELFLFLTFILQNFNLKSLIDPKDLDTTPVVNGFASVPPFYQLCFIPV

in vitro = details: beagle, dog, plasma, pH 7.4
Method: Samples were tested at 2 μM.
The supernatant was removed and incubated at 37 °C for at least 10 min before use. The pH of each matrix was checked and adjusted to pH 7.4 using 10% phosphoric acid or 1 N sodium hydroxide as necessary.
Test and control article stock solutions were spiked (1.5 µL) into matrix (0.749 mL) to a final assay concentration of 2 µM and mixed. […] These tubes were sealed and incubated at 37 °C with shaking.
The quenched samples were mixed briefly by vortexing and stored in a −20 °C freezer.
Sample plates were stored refrigerated until analysis.
The column was set to a temperature of 55 °C. […] The instrument was equipped with an electrospray ionization source (500 °C) operated in positive-ion mode.
Peak area ratios for IS-normalized test article and control article counts were used to calculate the percent remaining relative to the time zero (T0) value. As appropriate, results were plotted and further analyzed to calculate half-life (T1/2) values.
Mean peak ratios were used to calculate the percent remaining relative to the T0 value: % Remaining at Timex = (mean peak area ratio Tx/mean peak ratio T0) × 100.

[7] = Protein binding in beagle dog plasma (ultracentrifugation); details: beagle, dog, plasma (K2EDTA), pH 7.4
[8] = system: beagle dog plasma proteins; assay: as above; details: Beagle dog plasma (K2EDTA); 2 μM; 2.5 h at 37 °C

“LRKLRKRLLRLVGRQLEEFL [HM-10/10, LRKLRKRLLRLVGRQLEEFL]” showed a CLint scaled ([1]; read-out: CLint (L/hr/kg) (converted)) of 5.15 L/h/kg, a CLint scaled ([1]; read-out: CLint (mL/min/kg)) of 5.15 L/h/kg and a half-life at 2 µM ([1]; pooled liver microsomes, pH 7.4, Cynomolgus monkey liver microsomes 0.5 mg protein/mL) of 21.8 min. The remaining at 2 h, 2 µM ([1]; pooled liver microsomes, pH 7.4, Cynomolgus monkey liver microsomes 0.5 mg protein/mL, read-out: % Remaining at 120 min) was 0.8%, the “% Remaining at 30 min” value ([2]; 2 μM) was 2.5% and the half-life at 2 µM ([2]; cryopreserved hepatocytes) was 5.28 min. For the same sequence, the remaining at 0.5 h, 2 µM ([2]; human, cryopreserved hepatocytes, read-out: % Remaining at 30 min) was 2.47%, the CLint scaled ([2]; human, 2 μM, read-out: CLint (L/hr/kg) (converted)) was 42.5 L/h/kg and the CLint scaled ([2]; human, 2 μM, read-out: CLint (mL/min/kg)) was 42.5 L/h/kg. For the same sequence, the “Fold Increase (mRNA Expression) Lot HH1086” value (CYP1A2; 2 µM) was 1.69 fold, the “Fold Increase (mRNA Expression) Lot HH1142” value (CYP1A2; 2 µM) was 2.24 fold and the “Fold Increase (mRNA Expression) Lot HH1144” value (CYP1A2; 2 µM) was 1.81 fold. For the same sequence, the “Fold Increase (mRNA Expression) Mean of 3 Lots” value (“Fold Increase … of 3 Lots” below) (CYP1A2; 2 µM) was 1.91 fold, the “Comments (mRNA induction)” value (CYP1A2; 10 µM) was “Induction Observed” and the “Fold Increase (mRNA Expression) Lot HH1086” value (CYP1A2; 10 µM) was 2.75 fold. The “Fold Increase (mRNA Expression) Lot HH1142” value (CYP1A2; 10 µM) was 3.24 fold, the “Fold Increase (mRNA Expression) Lot HH1144” value (CYP1A2; 10 µM) was 1.75 fold and the “Fold Increase … of 3 Lots” value (CYP1A2; 10 µM) was 2.58 fold. For the same sequence, the “Comments (mRNA induction)” value (CYP1A2; 25 µM) was “Induction Observed”, the “Fold Increase (mRNA Expression) Lot HH1086” value (CYP1A2; 25 µM) was 2.74 fold and the “Fold Increase (mRNA Expression) Lot HH1142” value (CYP1A2; 25 µM) was 3.01 fold. The “Fold Increase (mRNA Expression) Lot HH1144” value (CYP1A2; 25 µM) was 1.13 fold, the “Fold Increase … of 3 Lots” value (CYP1A2; 25 µM) was 2.29 fold and the “Comments (mRNA induction)” value (CYP2B6 [3]; 2 µM) was “Induction Observed”. For the same sequence, the “Fold Increase (mRNA Expression) Lot HH1086” value (CYP2B6 [3]; 2 µM) was 2.03 fold, the “Fold Increase (mRNA Expression) Lot HH1142” value (CYP2B6 [3]; 2 µM) was 9.76 fold and the “Fold Increase (mRNA Expression) Lot HH1144” value (CYP2B6 [3]; 2 µM) was 2.86 fold. The “Fold Increase … of 3 Lots” value (CYP2B6 [3]; 2 µM) was 4.88 fold, the “Comments (mRNA induction)” value (CYP2B6 [3]; 10 µM) was “Induction Observed” and the “Fold Increase (mRNA Expression) Lot HH1086” value (CYP2B6 [3]; 10 µM) was 2.54 fold. For the same sequence, the “Fold Increase (mRNA Expression) Lot HH1142” value (CYP2B6 [3]; 10 µM) was 7.08 fold, the “Fold Increase (mRNA Expression) Lot HH1144” value (CYP2B6 [3]; 10 µM) was 3.33 fold and the “Fold Increase … of 3 Lots” value (CYP2B6 [3]; 10 µM) was 4.32 fold. For the same sequence, the “Comments (mRNA induction)” value (CYP2B6 [3]; 25 µM) was “Induction Observed”, the “Fold Increase (mRNA Expression) Lot HH1086” value (CYP2B6 [3]; 25 µM) was 1.26 fold and the “Fold Increase (mRNA Expression) Lot HH1142” value (CYP2B6 [3]; 25 µM) was 5.04 fold. For the same sequence, the “Fold Increase (mRNA Expression) Lot HH1144” value (CYP2B6 [3]; 25 µM) was 1.92 fold, the “Fold Increase … of 3 Lots” value (CYP2B6 [3]; 25 µM) was 2.74 fold and the inhibition at 50 µM [4] was -26.4 to 42.2%. For the same sequence, the “Inhibition of CYP450 isoenzymes at 50 µM (maximum test concentration)” value ([5]; all isoenzymes, +/− NADPH, with and without 30-min preincubation) was “No inhibition to minimal inhibition”, the “Inhibition of CYP isozymes at 50 µM with pre-incubation in the presence of 1 mM NADPH” value ([5]; all isozymes, pooled human liver microsomes 0.1 mg/mL) was “less than 30%” and the “Time-dependent inhibition (TDI) of CYP450 isoenzymes” value ([5]; up to 50 µM, all isoenzymes) was “no TDI”. The “% Inhibition at 50 µM No PI + NADPH” value (CYP2B6 [6]) was 17.3%, the “% Inhibition at 50 µM No PI − NADPH” value (CYP2B6 [6]) was 25.2% and the “% Inhibition at 50 µM PI + NADPH” value (CYP2B6 [6]) was 28.4%. For the same sequence, the “% Inhibition at 50 µM PI − NADPH” value (CYP2B6 [6]) was 42.2%, the “% Inhibition at 50 µM No PI + NADPH” value (CYP2C19) was −26.4% and the “% Inhibition at 50 µM No PI − NADPH” value (CYP2C19) was −9.4%. For the same sequence, the “% Inhibition at 50 µM PI + NADPH” value (CYP2C19) was −6.0%, the “% Inhibition at 50 µM PI − NADPH” value (CYP2C19) was 19.9% and the half-life at 2 µM (in vitro) was 54.6 min. The remaining at 2 h, 2 µM (in vitro) was 24.8%, the fraction unbound at 2.5 h, 2 µM [7] was 0.648 ± 0.265 and the remaining at 2.5 h, 2 µM [7] was 29.2%. For the same sequence, the “% Protein Bound Mean ± SD” value [8] was 35.2 ± 26.5% and the “% Protein Free Mean ± SD” value [8] was 64.8 ± 26.5%.
